Where two headings read alike, the source gives them in different places.
Assays:
[1] = biological target: T1, human dopamine D2 (D2S) receptor (Homo sapiens, UniProt P14416); test: Competition radioligand binding, [3H]-spiperone, CHO-K1 membranes; conditions: for Ki: human cloned D2S; for inhibition at 10 µM: read-out: % inh. at 10 μM D2
T1 construct: expressed in transfected cells; host or cells: CHO-K1
Description: (§1) Experiments were carried out in membranes from cell lines stably expressing the human cloned receptors.
(§2) Competition radioligand binding assays were performed on membranes isolated from cell lines stable expressing the cloned human receptors, which were either in-house or commercially available. […] Assays (250 μL assay final volume) were carried out in 96-well polypropylene plates in duplicate. In short, suspension of appropriate membrane protein was incubated in assay buffer with addition of the corresponding radioligand, in the presence or absence of tested compound or reference compound. […] After the incubation, the content of the test plates was transferred to 96-well plates with glass fibre filter GF/B or GF/C, previously pre-treated with polyethyleneimine (PEI), and rapidly filtered with the use of vacuum, followed by rapid washing with cold (4 °C) wash buffer. After that the filter plates were dried at 60 °C for 1 h. Then, 30 μL of liquid scintillation cocktail (UniverSol-ES, MP Biomedicals, Solon, OH) was added to each well of the filter plates and the radioactivity was measured in a MicroBeta2 microplate scintillation counter (PerkinElmer, Madrid, Spain).
(§3) Competition binding curves were fitted to a one-site competition binding model (Fit Ki) with the use of Prism 7 software (GraphPad, San Diego, CA). logKi (log of the equilibrium dissociation constant (Ki)) values were obtained after constraining the concentration of radioligand employed in the assay and its dissociation constant (KD) as determined in saturation radioligand binding assays.

[2] = biological target: T2, human serotonin 5-HT1A receptor (Homo sapiens, UniProt P08908); test: Competition radioligand binding, [3H]-8-OH-DPAT, HEK293 membranes; conditions: for Ki: human cloned 5-HT1A, read-out: Ki 5-HT1A (converted); for inhibition at 10 µM: read-out: % inh. at 10 μM 5-HT1A
T2 construct: expressed in transfected cells; host or cells: HEK293
T2 sequence (P08908 1-422): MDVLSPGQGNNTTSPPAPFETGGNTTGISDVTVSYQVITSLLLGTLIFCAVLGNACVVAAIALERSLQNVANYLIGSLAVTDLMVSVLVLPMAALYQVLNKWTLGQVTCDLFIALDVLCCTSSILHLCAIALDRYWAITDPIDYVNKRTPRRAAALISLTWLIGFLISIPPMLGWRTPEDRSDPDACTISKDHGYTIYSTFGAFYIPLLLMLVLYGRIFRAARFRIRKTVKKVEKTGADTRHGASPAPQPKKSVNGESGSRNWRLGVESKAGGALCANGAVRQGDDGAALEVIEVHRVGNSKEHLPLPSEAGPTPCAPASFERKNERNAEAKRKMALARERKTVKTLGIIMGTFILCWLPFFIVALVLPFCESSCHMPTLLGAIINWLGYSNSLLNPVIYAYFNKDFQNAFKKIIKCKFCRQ
Description: as §1, §2, §3

[3] = biological target: T3, human serotonin 5-HT2A receptor (Homo sapiens, UniProt P28223); test: Competition radioligand binding, [3H]-Ketanserin, CHO-K1 membranes; conditions: for Ki: human cloned 5-HT2A; for pKi 5-HT2A/pKi D2: ratio of pKi values; for inhibition at 10 µM: read-out: % inh. at 10 μM 5-HT2A
T3 construct: expressed in transfected cells; host or cells: CHO-K1
Description: as §1, §2, §3

[4] = mean ± SEM, read-out: pKi D2 (converted)

T1 sequence (P14416 1-414 isoform P14416-2): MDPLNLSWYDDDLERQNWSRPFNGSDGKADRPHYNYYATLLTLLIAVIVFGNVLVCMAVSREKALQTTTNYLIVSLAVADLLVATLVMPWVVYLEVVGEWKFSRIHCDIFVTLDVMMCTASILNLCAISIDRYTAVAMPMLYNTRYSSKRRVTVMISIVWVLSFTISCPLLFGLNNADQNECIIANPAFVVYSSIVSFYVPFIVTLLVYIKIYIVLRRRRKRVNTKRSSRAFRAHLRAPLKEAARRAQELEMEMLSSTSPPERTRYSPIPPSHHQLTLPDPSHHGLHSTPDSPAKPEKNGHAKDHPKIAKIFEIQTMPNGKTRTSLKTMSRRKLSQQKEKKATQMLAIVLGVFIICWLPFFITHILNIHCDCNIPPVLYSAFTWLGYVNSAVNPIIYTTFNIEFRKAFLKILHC
T3 sequence (P28223 whole entry): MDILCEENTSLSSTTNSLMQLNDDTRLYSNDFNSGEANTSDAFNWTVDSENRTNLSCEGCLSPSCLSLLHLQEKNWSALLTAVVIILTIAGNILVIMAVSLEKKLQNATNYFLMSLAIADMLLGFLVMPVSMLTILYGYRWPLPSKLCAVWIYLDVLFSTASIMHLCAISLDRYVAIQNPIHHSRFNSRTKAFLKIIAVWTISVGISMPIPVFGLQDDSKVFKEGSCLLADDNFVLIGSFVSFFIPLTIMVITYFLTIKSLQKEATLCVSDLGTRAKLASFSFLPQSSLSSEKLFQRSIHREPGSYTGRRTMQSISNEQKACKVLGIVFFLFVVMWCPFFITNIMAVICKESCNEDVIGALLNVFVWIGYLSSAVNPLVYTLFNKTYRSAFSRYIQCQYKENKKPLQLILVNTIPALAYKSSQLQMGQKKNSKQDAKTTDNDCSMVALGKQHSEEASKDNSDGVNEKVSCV

Compound | Ki ([1]; read-out: Ki D2 (converted)) | Ki [2] | Ki [3] | pKi 5-HT2A/pKi D2 [3] | inhibition at 10 µM [1] | inhibition at 10 µM [2] | inhibition at 10 µM [3] | Ki [1, 4]
O=C(NCCCN1CCN(c2ccccc2Cl)CC1)c1n[nH]c2ccccc12 [Compound 13, N-(3-(4-(2-chlorophenyl)piperazin-1-yl)propyl)-1H-indazole-3-carboxamide] | 69.7 nM | 107 nM | 134 nM | 0.96 | – | – | – | –
O=C(NCCCN1CCN(C2CCCCC2)CC1)c1n[nH]c2ccccc12 [Compound 16, N-(3-(4-cyclohexylpiperazin-1-yl)propyl)-1H-indazole-3-carboxamide] | – | – | – | – | 19 ± 6.8% | 56.7 ± 1.6% | 25.6 ± 9% | –
COc1cccc(N2CCN(CCCNC(=O)c3n[nH]c4ccccc34)CC2)c1 [Compound 3, N-(3-(4-(3-methoxyphenyl)piperazin-1-yl)propyl)-1H-indazole-3-carboxamide] | 315 nM | 110 nM | 184 nM | 1.04 | – | – | – | –
O=C(NCCCN1CCN(c2ncccn2)CC1)c1n[nH]c2ccccc12 [Compound 8, N-(3-(4-(pyrimidin-2-yl)piperazin-1-yl)propyl)-1H-indazole-3-carboxamide] | 480 nM | 238 nM | 807 nM | 0.96 | – | – | – | –
O=C(NCCCN1CCN(c2ccncc2)CC1)c1n[nH]c2ccccc12 [Compound 7, N-(3-(4-(pyridin-4-yl)piperazin-1-yl)propyl)-1H-indazole-3-carboxamide] | – | – | – | – | 0% | 27.9 ± 2.7% | 0% | –
O=C(NCCCN1CCN(c2ccccc2F)CC1)c1n[nH]c2ccccc12 [Compound 9, N-(3-(4-(2-fluorophenyl)piperazin-1-yl)propyl)-1H-indazole-3-carboxamide] | 42.2 nM | 135 nM | 117 nM | 0.94 | – | – | – | 41.7 nM
CSc1ccccc1N1CCN(CCCNC(=O)c2n[nH]c3ccccc23)CC1 [Compound 14, N-(3-(4-(2-(methylthio)phenyl)piperazin-1-yl)propyl)-1H-indazole-3-carboxamide] | 7.05 nM | 12.4 nM | 217 nM | 0.82 | – | – | – | –
CCOc1ccccc1N1CCN(CCCNC(=O)c2n[nH]c3ccccc23)CC1 [Compound 15, N-(3-(4-(2-ethoxyphenyl)piperazin-1-yl)propyl)-1H-indazole-3-carboxamide] | 19.8 nM | 46.9 nM | 280 nM | 0.85 | – | – | – | –
COc1ccccc1N1CCN(CCCNC(=O)c2n[nH]c3ccccc23)CC1 [Compound 2, N-(3-(4-(2-methoxyphenyl)piperazin-1-yl)propyl)-1H-indazole-3-carboxamide] | 22.7 nM | 22.9 nM | 372 nM | 0.84 | – | – | – | –
COc1ccc(N2CCN(CCCNC(=O)c3n[nH]c4ccccc34)CC2)cc1 [Compound 4, N-(3-(4-(4-methoxyphenyl)piperazin-1-yl)propyl)-1H-indazole-3-carboxamide] | – | – | 491 nM | – | 46 ± 6% | 58.4 ± 1.8% | – | –
O=C(NCCCN1CCN(c2ccccn2)CC1)c1n[nH]c2ccccc12 [Compound 5, N-(3-(4-(pyridin-2-yl)piperazin-1-yl)propyl)-1H-indazole-3-carboxamide] | 339 nM | 113 nM | 132 nM | 1.06 | – | – | – | –
O=C(NCCCN1CCN(c2cccnc2)CC1)c1n[nH]c2ccccc12 [Compound 6, N-(3-(4-(pyridin-3-yl)piperazin-1-yl)propyl)-1H-indazole-3-carboxamide] | 1010 nM | 1380 nM | 2650 nM | 0.93 | – | – | – | –
O=C(NCCCN1CCN(c2ccccc2C(F)(F)F)CC1)c1n[nH]c2ccccc12 [Compound 12, N-(3-(4-(2-(trifluoromethyl)phenyl)piperazin-1-yl)propyl)-1H-indazole-3-carboxamide] | 45.2 nM | 423 nM | 832 nM | 0.83 | – | – | – | 44.7 nM

Reference: paper PMC10187112 (Journal of Enzyme Inhibition and Medicinal Chemistry, 2023)
